# From patent US9248200B2, “Method of delivering an anti-cancer agent to a cell” (Agency for Science, Technology and Research, priority 2007, dated 2016)
# Assays:
# [1] = tested on: human normal mammary epithelial cells (HMEC); assay: Cytotoxicity test (Alamar Blue cell viability); assay type: cell-based; conditions: treated 2 days, different concentrations, FIG. 1
# Protocol: Cells were plated (1×10^4 cells in mammary epithelial growth medium/well) in quintuplicate and octuplicate for samples and control, respectively, in 96-well microplates, and allowed to adhere overnight.
# [2] = target: proteinase K (Parengyodontium album, UniProt P06873); assay: Proteolysis assessment (FITC-BSA fluorescence with proteinase K); conditions: proteinase K 0.05 mg/ml, over time; FIG. 3
# Protocol: Proteolysis Assessment: Protein degradation was determined by monitoring the fluorescence intensity increment in FITC-BSA when samples were subjected to proteinase K (0.05 mg/mI), using a fluorescence spectrophotometer (Hitachi, Japan, λex=490 nm and λem=530 nm). All measurements were run in triplicate.
# [3] = tested on: SKBR-3 (HER2-overexpressing human breast cancer cell line); assay: Cancer cell proliferation assessment (Alamar Blue); assay type: cell-based; conditions: SKBR-3 cells; Herceptin 0.5 mg/ml; FIG. 4
# Protocol: Cancer Cell Proliferation Assessment: SKBR-3 cells (ATCC, HTB3O, USA) were plated (1×10^4 cells in McCoy's 5 A medium/well) in quintuplicate and octuplicate for samples and control, respectively, in 96-well microplates and allowed to adhere overnight. […] At the time points indicated, the culture media were replaced by the phenol red-free media containing 10% of Alamar Blue. Cell proliferation was determined from the reduction in dye absorbance at 570 and 600 nm after 4 h of incubation.
# Chain of proteinase K (P06873 106-384): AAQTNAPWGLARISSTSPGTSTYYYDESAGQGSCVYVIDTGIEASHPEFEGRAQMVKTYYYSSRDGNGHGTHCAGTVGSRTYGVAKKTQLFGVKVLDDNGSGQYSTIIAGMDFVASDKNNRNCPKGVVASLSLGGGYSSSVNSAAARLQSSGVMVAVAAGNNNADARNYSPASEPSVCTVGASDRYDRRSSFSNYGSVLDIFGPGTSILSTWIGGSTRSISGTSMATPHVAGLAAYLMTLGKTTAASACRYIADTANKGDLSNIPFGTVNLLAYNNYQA
substance,measurement,setting,value
(−)-epigallocatechin gallate [EGCG],cytotoxicity,[1],low cytotoxicity
free FITC-BSA: fluorescence-labeled protein (FITC-BSA),fluorescence intensity of FITC-BSA (protein degradation),[2],greatly increased with time
oligomeric (−)-epigallocatechin-3-O-gallate [OEGCG],inhibition of cell growth,[3],inhibited
